The conditions of data set [1]: even if several grams are taken; cited from earlier work.
Data set [2] is described as follows: Viscosity of samples from the structural analysis. The class given is physicochemical. On the procedure: For structural analysis, a monodiglycerol ester of 3-hydroxybutyric acid crosslinked with succinic acid is produced according to synthesis route (A) and characterized by gel permeation chromatography (GPC) and acid number determination.
(§1) Subsequently, in the second method step (b), 100 g of the monodiglycerol ester of 3-hydroxybutyric acid are caused to react with 10 g succinic acid anhydride according to a first batch with stirring at 80° C. for 20 h and the water formed is continuously withdrawn by distillation. A sample is taken for further analysis (Sample A) and then another 7 g succinic acid anhydride are added and caused to react at 120° C. for another 6 h. The water formed is withdrawn by continuous distillation. Then another sample is taken for analysis (sample C).
as §1, with “Furthermore,” for “Subsequently,”, “(b), according to a second approach,” for “(b),”, “with the addition of 100 μL of titanium tetrabutylate (catalyst)” for “according to a first batch”, “(sample B)” for “(Sample A)”, “80°” for “120°”, “D).” for “C).”

This is an account of results in patent publication US12448483B2, “Process for preparing carboxylic acid ester-cross-linked polyglycerol esters of 3-hydroxybutyric acid” (KetoLipix Therapeutics GmbH, priority 2020, dated 2025).

`CC(O)CC(=O)O` (centres unmarked) [3-hydroxybutyric acid]: in data set [1], the Duration of ketosis entry is “three to four”.

In the case of “monodiglycerol esters of 3-hydroxybutyric acid [Educt]”, in data set [2], the “Viscosity at 25° C.” value is 15,700 Pas.
